Experimental data taken from PubChem BioAssay (NCI).
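In this assay, cells in 96-well plates receive the compound at five concentrations for 48 hours. Endpoints are linearly interpolated between the surrounding concentrations. GI50: concentration for 50% inhibition of growth. TGI denotes the concentration required for complete inhibition of growth.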

Legend:
Experiment in all cases: NCI anticancer screen, dose series, 48 h
HS 578T breast = system: HS 578T breast
CAKI-1 renal = system: CAKI-1 renal
SK-MEL-28 melanoma = system: SK-MEL-28 melanoma
IGROV1 ovarian = system: IGROV1 ovarian
OVCAR-3 ovarian = system: OVCAR-3 ovarian
MOLT-4 leukemia = system: MOLT-4 leukemia
TK-10 renal = system: TK-10 renal
A549 NSCLC = system: A549 NSCLC
COLO 205 colon = system: COLO 205 colon
SK-MEL-5 melanoma = system: SK-MEL-5 melanoma

SMILES | TGI (HS 578T breast) [µM] | TGI (CAKI-1 renal) [µM] | TGI (SK-MEL-28 melanoma) [µM] | TGI (IGROV1 ovarian) [µM] | TGI (OVCAR-3 ovarian) [µM] | TGI (MOLT-4 leukemia) [µM] | TGI (TK-10 renal) [µM] | TGI (A549 NSCLC) [µM] | TGI (COLO 205 colon) [µM] | TGI (SK-MEL-5 melanoma) [µM] | GI50 (MOLT-4 leukemia) [nM]
CCOC(=O)NN(C(=O)OCC)C(C(=O)C1=CCCCC1)N(NC(=O)OCC)C(=O)OCC | > 100 | > 100 | > 100 | > 100 | > 100 | > 100 | > 100 | > 100 | > 100 | > 100 | –
CCOC(=O)/C=C(\C(=O)OCC)n1ccc(=O)n(Cc2cnnn2CCCCOC(C)=O)c1=O | 58.9 | 6.8 | 21.4 | 28.4 | 21.5 | 5.19 | 8.96 | 40.2 | 5.8 | 30.2 | 2230
CC(=O)Nc1ccc2nc(-c3ccccn3)c(-c3ccccn3)nc2c1 | > 100 | > 100 | > 100 | > 100 | > 100 | > 100 | > 100 | > 100 | > 100 | > 100 | –
O=[N+]([O-])C(/C=C(\Cl)[N+](=O)[O-])=C1Nc2ccccc2N1 | > 100 | 69.4 | > 100 | > 100 | > 100 | > 100 | > 100 | > 100 | > 100 | > 100 | –
COc1cc(-c2nc3ccc(N4CCN(C)CC4)cc3[nH]2)c(OC)c2[nH]c(COC(C)=O)nc12 | > 100 | > 100 | > 100 | > 100 | > 100 | > 100 | > 100 | > 100 | > 100 | > 100 | –
CCCCCCCCCCCC(=O)OC[C@H](C[As](=O)(O)O)OC(=O)CCCCCCCCCCC | 8.69 | 20.8 | 11.9 | 4.07 | 19.3 | > 81.4 | 15.1 | 20.5 | 38.8 | 4.54 | –
COc1ccc(/C=C/C(=O)/C=C/c2ccc(OC)cc2OC)c(OC)c1 | > 100 | 23.4 | 22.5 | 36.1 | 7.37 | 40 | 47.3 | 46.3 | 51.9 | 16.9 | –
CSc1nc(C)cc(Nc2ccc(O)c(CN3CCOCC3)c2)n1 | > 100 | > 100 | > 100 | > 100 | > 100 | > 100 | > 100 | > 100 | > 100 | > 100 | –
NC(N)=NS(=O)(=O)c1ccc(N/N=C2/CCOC2=O)cc1 | > 100 | > 100 | > 100 | > 100 | > 100 | > 100 | > 100 | > 100 | > 100 | > 100 | –
O=P1(c2ccccc2)c2ccccc2-c2ccccc21 | > 100 | > 100 | > 100 | > 100 | > 100 | > 100 | > 100 | > 100 | > 100 | > 100 | –
COc1cc(CSc2ccc(O)cc2)cc(OC)c1OC | > 100 | > 100 | > 100 | > 100 | > 100 | > 100 | > 100 | > 100 | > 100 | 34.9 | –
CCCNC(=S)N/N=C(\C)c1ccc(S(=O)(=O)N(C)c2ccccc2)cc1 | 24.4 | 97.7 | > 100 | > 66.1 | > 100 | > 100 | > 91.6 | > 100 | > 100 | > 100 | –
Cc1nc(SCC(=O)Nc2ccc(Cl)cc2)c2sc(=S)n(-c3ccccc3)c2n1 | > 10 | > 10 | > 10 | > 10 | > 10 | > 10 | > 10 | > 10 | > 10 | > 10 | –
CSC1(C)C(=O)Nc2c(OCc3ccccc3)cc([N+](=O)[O-])cc21 (stereo unspecified) | 32.6 | > 100 | > 100 | > 100 | > 100 | > 100 | > 100 | > 100 | > 100 | > 100 | –
COc1cc2c(c(OC)c1OC)C(=O)[C@@H]1[C@H]2N1C(=O)NCCCl | > 100 | > 100 | > 100 | > 100 | > 100 | > 100 | > 100 | > 100 | 78.3 | > 100 | –
COc1cccc(C23CCCC(C2)NCC3Br)c1OC (stereo unspecified) | 78.5 | > 100 | > 100 | > 100 | > 100 | > 100 | > 100 | > 100 | 27.1 | 13.1 | –
